Reference: BindingDB's records for doi:10.1016/S0960-894X(97)10107-X (1997)

Biological target: 1,3-beta-glucan synthase (Candida albicans)
Test: In vitro inhibition of 1,3-beta-glucan synthase in Candida albicans membrane assay.

Row | SMILES | IC50 [nM]
1 | C=Cc1cc(C[C@H](O)[C@@H]2NC(=O)[C@@H]3C[C@@H](O)CN3C(=O)[C@H]([C@@H](C)O)NC(=O)[C@H](NC(=O)CCCCCCCCC(C)CC(C)CC)C[C@@H](O)CNC(=O)[C@@H]3[C@@H](O)CCN3C(=O)[C@H]([C@@H](O)CC(N)=O)NC2=O)ccc1O (some centres undefined) [Pneumocandin analogue] | 80
2 | CCC(C)CC(C)CCCCCCCCC(=O)N[C@@H]1C[C@@H](O)CNC(=O)[C@@H]2[C@@H](O)CCN2C(=O)[C@H]([C@@H](O)CC(N)=O)NC(=O)[C@H]([C@@H](O)Cc2ccc(O)c(/C=C/C(=O)OC)c2)NC(=O)[C@@H]2C[C@@H](O)CN2C(=O)[C@H]([C@@H](C)O)NC1=O (some centres undefined) [Pneumocandin analogue] | 150
3 | CCC(C)CC(C)CCCCCCCCC(=O)N[C@@H]1C[C@@H](O)CNC(=O)[C@@H]2[C@@H](O)CCN2C(=O)[C@H]([C@@H](O)CC(N)=O)NC(=O)[C@H]([C@@H](O)Cc2ccc(O)c(C(=O)OC)c2)NC(=O)[C@@H]2C[C@@H](O)CN2C(=O)[C@H]([C@@H](C)O)NC1=O (some centres undefined) [Pneumocandin analogue] | 3000
4 | CCC(C)CC(C)CCCCCCCCC(=O)N[C@@H]1C[C@@H](O)CNC(=O)[C@@H]2[C@@H](O)CCN2C(=O)[C@H]([C@@H](O)CC(N)=O)NC(=O)[C@H]([C@@H](O)Cc2ccc(O)c(C=O)c2)NC(=O)[C@@H]2C[C@@H](O)CN2C(=O)[C@H]([C@@H](C)O)NC1=O (some centres undefined) [Pneumocandin analogue] | > 5000
5 | CCC(C)CC(C)CCCCCCCCC(=O)N[C@@H]1C[C@@H](O)CNC(=O)[C@@H]2[C@@H](O)CCN2C(=O)[C@H]([C@@H](O)CC(N)=O)NC(=O)[C@H]([C@@H](O)Cc2ccc(O)c(CCN)c2)NC(=O)[C@@H]2C[C@@H](O)CN2C(=O)[C@H]([C@@H](C)O)NC1=O (some centres undefined) [Pneumocandin analogue] | 200
6 | CCC(C)CC(C)CCCCCCCCC(=O)N[C@@H]1C[C@@H](O)CNC(=O)[C@@H]2[C@@H](O)CCN2C(=O)[C@H]([C@@H](O)CC(N)=O)NC(=O)[C@H]([C@@H](O)Cc2ccc(O)c(CCO)c2)NC(=O)[C@@H]2C[C@@H](O)CN2C(=O)[C@H]([C@@H](C)O)NC1=O (some centres undefined) [Pneumocandin analogue] | 60
7 | CCC(C)CC(C)CCCCCCCCC(=O)N[C@@H]1C[C@@H](O)CNC(=O)[C@@H]2[C@@H](O)CCN2C(=O)[C@H]([C@@H](O)CC(N)=O)NC(=O)[C@H]([C@@H](O)Cc2ccc(O)c(I)c2)NC(=O)[C@@H]2C[C@@H](O)CN2C(=O)[C@H]([C@@H](C)O)NC1=O (some centres undefined) [Pneumocandin analogue] | 100
8 | CCC(C)CC(C)CCCCCCCCC(=O)N[C@@H]1C[C@@H](O)CNC(=O)[C@@H]2[C@@H](O)CCN2C(=O)[C@H]([C@@H](O)CC(N)=O)NC(=O)[C@H]([C@@H](O)Cc2ccc(O)c(N)c2)NC(=O)[C@@H]2C[C@@H](O)CN2C(=O)[C@H]([C@@H](C)O)NC1=O (some centres undefined) [Pneumocandin analogue] | 50
9 | CCC(C)CC(C)CCCCCCCCC(=O)N[C@@H]1C[C@@H](O)CNC(=O)[C@@H]2[C@@H](O)CCN2C(=O)[C@H]([C@@H](O)CC(N)=O)NC(=O)[C@H]([C@@H](O)Cc2ccc(O)c([N+](=O)[O-])c2)NC(=O)[C@@H]2C[C@@H](O)CN2C(=O)[C@H]([C@@H](C)O)NC1=O (some centres undefined) [Pneumocandin analogue] | 4000
10 | CCC(C)CC(C)CCCCCCCCC(=O)N[C@@H]1C[C@@H](O)CNC(=O)[C@@H]2[C@@H](O)CCN2C(=O)[C@H]([C@@H](O)CC(N)=O)NC(=O)[C@H]([C@@H](O)Cc2ccc(O)cc2)NC(=O)[C@@H]2C[C@@H](O)CN2C(=O)[C@H]([C@@H](C)O)NC1=O (some centres undefined) [Pneumocandin analogue] | 70
11 | CCC(C)CC(C)CCCCCCCCC(=O)N[C@@H]1C[C@@H](O)[C@@H](O)NC(=O)[C@@H]2[C@@H](O)CCN2C(=O)[C@H]([C@@H](O)CC(N)=O)NC(=O)[C@H]([C@@H](O)[C@H](O)c2cc(I)c(O)c(I)c2)NC(=O)[C@@H]2C[C@@H](O)CN2C(=O)[C@H]([C@@H](C)O)NC1=O (some centres undefined) [Pneumocandin analogue] | > 10000
12 | CCC(C)CC(C)CCCCCCCCC(=O)N[C@@H]1C[C@@H](O)[C@@H](O)NC(=O)[C@@H]2[C@@H](O)CCN2C(=O)[C@H]([C@@H](O)CC(N)=O)NC(=O)[C@H]([C@@H](O)[C@H](O)c2ccc(O)c(I)c2)NC(=O)[C@@H]2C[C@@H](O)CN2C(=O)[C@H]([C@@H](C)O)NC1=O (some centres undefined) [Pneumocandin analogue] | 100
13 | CCC(C)CC(C)CCCCCCCCC(=O)N[C@@H]1C[C@@H](O)[C@@H](O)NC(=O)[C@@H]2[C@@H](O)CCN2C(=O)[C@H]([C@@H](O)CC(N)=O)NC(=O)[C@H]([C@@H](O)[C@H](O)c2ccc(O)c(N)c2)NC(=O)[C@@H]2C[C@@H](O)CN2C(=O)[C@H]([C@@H](C)O)NC1=O (some centres undefined) [Pneumocandin analogue] | 40
14 | CCC(C)CC(C)CCCCCCCCC(=O)N[C@@H]1C[C@@H](O)[C@@H](O)NC(=O)[C@@H]2[C@@H](O)CCN2C(=O)[C@H]([C@@H](O)CC(N)=O)NC(=O)[C@H]([C@@H](O)[C@H](O)c2ccc(O)c(NC(=O)CCC(=O)O)c2)NC(=O)[C@@H]2C[C@@H](O)CN2C(=O)[C@H]([C@@H](C)O)NC1=O (some centres undefined) [Pneumocandin analogue] | 150
15 | CCC(C)CC(C)CCCCCCCCC(=O)N[C@@H]1C[C@@H](O)[C@@H](O)NC(=O)[C@@H]2[C@@H](O)CCN2C(=O)[C@H]([C@@H](O)CC(N)=O)NC(=O)[C@H]([C@@H](O)[C@H](O)c2ccc(O)c(NC(=O)CCN)c2)NC(=O)[C@@H]2C[C@@H](O)CN2C(=O)[C@H]([C@@H](C)O)NC1=O (some centres undefined) [Pneumocandin analogue] | 70
16 | CCC(C)CC(C)CCCCCCCCC(=O)N[C@@H]1C[C@@H](O)[C@@H](O)NC(=O)[C@@H]2[C@@H](O)CCN2C(=O)[C@H]([C@@H](O)CC(N)=O)NC(=O)[C@H]([C@@H](O)[C@H](O)c2ccc(O)c(NC(=O)CN)c2)NC(=O)[C@@H]2C[C@@H](O)CN2C(=O)[C@H]([C@@H](C)O)NC1=O (some centres undefined) [Pneumocandin analogue] | 35
17 | CCC(C)CC(C)CCCCCCCCC(=O)N[C@@H]1C[C@@H](O)[C@@H](O)NC(=O)[C@@H]2[C@@H](O)CCN2C(=O)[C@H]([C@@H](O)CC(N)=O)NC(=O)[C@H]([C@@H](O)[C@H](O)c2ccc(O)c([N+](=O)[O-])c2)NC(=O)[C@@H]2C[C@@H](O)CN2C(=O)[C@H]([C@@H](C)O)NC1=O (some centres undefined) [Pneumocandin analogue] | 2900
18 | CCCc1cc(C[C@H](O)[C@@H]2NC(=O)[C@@H]3C[C@@H](O)CN3C(=O)[C@H]([C@@H](C)O)NC(=O)[C@H](NC(=O)CCCCCCCCC(C)CC(C)CC)C[C@@H](O)CNC(=O)[C@@H]3[C@@H](O)CCN3C(=O)[C@H]([C@@H](O)CC(N)=O)NC2=O)ccc1O (some centres undefined) [Pneumocandin analogue] | 600
19 | CCc1cc(C[C@H](O)[C@@H]2NC(=O)[C@@H]3C[C@@H](O)CN3C(=O)[C@H]([C@@H](C)O)NC(=O)[C@H](NC(=O)CCCCCCCCC(C)CC(C)CC)C[C@@H](O)CNC(=O)[C@@H]3[C@@H](O)CCN3C(=O)[C@H]([C@@H](O)CC(N)=O)NC2=O)ccc1O (some centres undefined) [Pneumocandin analogue] | 260
